Measurements from ChEMBL document CHEMBL3885861, “Open TG-GATES”.

Species: Rattus norvegicus
Experiment: Open TG-GATES - Regimen: Daily Repeat
Assay type: toxicity, organism-based, Sprague-Dawley
Set-up: regimen Daily Repeat, gender Male, age 6 weeks
Settings: in vivo, po, 0 mg/kg, route gavage, dose level Control; for APTT / Bas / Eos / Fbg / Ht / Lym / MCHC / MCV / Mono / PT / Plat / RBC / Ret: tissue Blood; for KIDNEY_L / KIDNEY_R / KIDNEY_TOTAL: tissue Kidney; for AST / CRE / GLC / IP / K / LDH / RALB / TBIL / TC / TP / gamma-GTP: tissue Plasma

In the case of `CN(C)CCCN1c2ccccc2CCc2ccccc21` [IMIPRAMINE], the TERMINAL_BW (72 h, time 3 day) was 230.9 g, the APTT (72 h, time 3 day) was 16.3 s and the Bas (72 h, time 3 day) was 0%. The Eos (72 h, time 3 day) was 1%, the Fbg (72 h, time 3 day) was 278.8 mg/dL and the Ht (72 h, time 3 day) was 40.6%. The Lym (72 h, time 3 day) was 77.8%, the MCHC (72 h, time 3 day) was 32.6% and the MCV (72 h, time 3 day) was 63.2 fL. It also gave a Mono (72 h, time 3 day) of 3%, a PT (72 h, time 3 day) of 15.8 s and a Plat (72 h, time 3 day) of 111.4 x10_4/uL. For the same molecule, the RBC (72 h, time 3 day) was 642.2 x10_4/ul, the Ret (72 h, time 3 day) was 6.7% and the KIDNEY_L (72 h, time 3 day) was 1 g. The KIDNEY_R (72 h, time 3 day) was 1 g, the KIDNEY_TOTAL (72 h, time 3 day) was 2 g and the AST (72 h, time 3 day) was 68.2 IU/L. It also gave a CRE (72 h, time 3 day) of 0.2 mg/dL, a GLC (72 h, time 3 day) of 180.6 mg/dL and an IP (72 h, time 3 day) of 7.7 mg/dL. The K (72 h, time 3 day) was 4.2 meq/L, the LDH (72 h, time 3 day) was 64.8 IU/L and the RALB (72 h, time 3 day) was 2.6 g/dL. The TBIL (72 h, time 3 day) was 0.056 mg/dL, the TC (72 h, time 3 day) was 79.2 mg/dL and the TP (72 h, time 3 day) was 5.7 g/dL. For the same molecule, the gamma-GTP (72 h, time 3 day) was 1 IU/L, the TERMINAL_BW ([…], time 7 day) was 270.9 g and the TERMINAL_BW ([…], time 14 day) was 328.3 g. For the same molecule, the TERMINAL_BW ([…], time 28 day) was 419.8 g, the APTT ([…], time 7 day) was 15.4 s and the Bas ([…], time 7 day) was 0.2%. The Eos ([…], time 7 day) was 1%, the Fbg ([…], time 7 day) was 292 mg/dL and the Ht ([…], time 7 day) was 41.2%. The Lym ([…], time 7 day) was 77.4%, the MCHC ([…], time 7 day) was 32.9% and the MCV ([…], time 7 day) was 63.5 fL. The Mono ([…], time 7 day) was 2.4%, the PT ([…], time 7 day) was 15.4 s and the Plat ([…], time 7 day) was 123.5 x10_4/uL. It also gave an RBC ([…], time 7 day) of 649.4 x10_4/ul, a Ret ([…], time 7 day) of 6.1% and an APTT ([…], time 14 day) of 16 s. The Bas ([…], time 14 day) was 0.4%, the Eos ([…], time 14 day) was 0.8% and the Fbg ([…], time 14 day) was 279.4 mg/dL. It also gave a Ht ([…], time 14 day) of 42.1%, a Lym ([…], time 14 day) of 79.2% and an MCHC ([…], time 14 day) of 33.2%. The MCV ([…], time 14 day) was 60.6 fL, the Mono ([…], time 14 day) was 1.8% and the PT ([…], time 14 day) was 15.6 s. It also gave a Plat ([…], time 14 day) of 119.8 x10_4/uL, an RBC ([…], time 14 day) of 695.6 x10_4/ul and a Ret ([…], time 14 day) of 4.6%. The APTT ([…], time 28 day) was 15.9 s, the Bas ([…], time 28 day) was 0% and the Eos ([…], time 28 day) was 1.2%. It also gave a Fbg ([…], time 28 day) of 294.2 mg/dL, a Ht ([…], time 28 day) of 44.1% and a Lym ([…], time 28 day) of 80.6%. The MCHC ([…], time 28 day) was 33.5%, the MCV ([…], time 28 day) was 57.9 fL and the Mono ([…], time 28 day) was 2.2%. The PT ([…], time 28 day) was 15.4 s, the Plat ([…], time 28 day) was 94.4 x10_4/uL and the RBC ([…], time 28 day) was 761.4 x10_4/ul. It also gave a Ret ([…], time 28 day) of 2.4%, a KIDNEY_L ([…], time 7 day) of 1.1 g and a KIDNEY_R ([…], time 7 day) of 1.1 g. For the same molecule, the KIDNEY_TOTAL ([…], time 7 day) was 2.2 g, the KIDNEY_L ([…], time 14 day) was 1.3 g and the KIDNEY_R ([…], time 14 day) was 1.2 g. It also gave a KIDNEY_TOTAL ([…], time 14 day) of 2.5 g, a KIDNEY_L ([…], time 28 day) of 1.4 g and a KIDNEY_R ([…], time 28 day) of 1.4 g. The KIDNEY_TOTAL ([…], time 28 day) was 2.9 g, the AST ([…], time 7 day) was 66.2 IU/L and the CRE ([…], time 7 day) was 0.2 mg/dL. The GLC ([…], time 7 day) was 185.6 mg/dL, the IP ([…], time 7 day) was 7.7 mg/dL and the K ([…], time 7 day) was 4 meq/L. For the same molecule, the LDH ([…], time 7 day) was 114 IU/L, the RALB ([…], time 7 day) was 2.6 g/dL and the TBIL ([…], time 7 day) was 0.056 mg/dL. The TC ([…], time 7 day) was 81.4 mg/dL, the TP ([…], time 7 day) was 5.9 g/dL and the gamma-GTP ([…], time 7 day) was 0.4 IU/L. It also gave an AST ([…], time 14 day) of 63.6 IU/L, a CRE ([…], time 14 day) of 0.2 mg/dL and a GLC ([…], time 14 day) of 183.8 mg/dL. For the same molecule, the IP ([…], time 14 day) was 6.8 mg/dL, the K ([…], time 14 day) was 4.2 meq/L and the LDH ([…], time 14 day) was 97.4 IU/L. It also gave an RALB ([…], time 14 day) of 2.6 g/dL, a TBIL ([…], time 14 day) of 0.05 mg/dL and a TC ([…], time 14 day) of 72.6 mg/dL. It also gave a TP ([…], time 14 day) of 5.9 g/dL, a gamma-GTP ([…], time 14 day) of 1 IU/L and an AST ([…], time 28 day) of 55.6 IU/L. For the same molecule, the CRE ([…], time 28 day) was 0.2 mg/dL, the GLC ([…], time 28 day) was 188.8 mg/dL and the IP ([…], time 28 day) was 6.9 mg/dL. For the same molecule, the K ([…], time 28 day) was 3.9 meq/L, the LDH ([…], time 28 day) was 43.4 IU/L and the RALB ([…], time 28 day) was 2.8 g/dL. For the same molecule, the TBIL ([…], time 28 day) was 0.056 mg/dL, the TC ([…], time 28 day) was 68 mg/dL and the TP ([…], time 28 day) was 6.3 g/dL. The gamma-GTP ([…], time 28 day) was 0.6 IU/L.
